Assay results reported in US4868321A, “Isothiocyanate intermediates” (FMC Corporation, priority 1988, dated 1989).
Structures can show the parent of a compound that is named as a salt.

Assays:
Type in all cases: in vivo
Morningglory [1] = assay: Preemergence Herbicidal Activity, Morningglory; conditions: Ipomoea, pre-emergence
Text: (§1) The herbicidal data in the following Tables 3 and 4 was obtained in the manner described in PCT published application no. WO 85/01939, previously mentioned, usually employing solutions of the herbicidal compound in 50/50 acetone/water mixtures. In those tables, the test compounds are identified by numbers which correspond to those in Table 1, "kg/ha" is kilograms per hectare, and "% C" is percent control.

Johnsongrass [2] = assay: Postemergence Herbicidal Activity, Johnsongrass; conditions: Sorghum halepense, post-emergence
Text: (§2) The herbicidal data in the following Tables 3 and 4 was obtained in the manner described in PCT published application no. […] In those tables, the test compounds are identified by numbers which correspond to those in Table 1, "kg/ha" is kilograms per hectare, and "% C" is percent control.

Wheat [3] = assay: Preemergence Herbicidal Activity, Wheat; conditions: Triticum aestivum, pre-emergence
Text: as §2

Field Bindweed [4] = assay: Preemergence Herbicidal Activity, Field Bindweed; conditions: pre-emergence
Text: as §1

Green Foxtail [5] = assay: Preemergence Herbicidal Activity, Green Foxtail; conditions: Setaria viridis, pre-emergence
Text: as §2

Soybean [6] = assay: Postemergence Herbicidal Activity, Soybean; conditions: Glycine max, post-emergence
Text: as §2

Soybean [7] = assay: Preemergence Herbicidal Activity, Soybean
Text: as §2

Barnyardgrass [8] = assay: Preemergence Herbicidal Activity, Barnyardgrass; conditions: Echinochloa crus-galli, pre-emergence
Text: as §2

Morningglory [9] = assay: Postemergence Herbicidal Activity, Morningglory
Text: as §1

Rice [10] = assay: Preemergence Herbicidal Activity, Rice; conditions: Oryza sativa, pre-emergence
Text: as §2

Field Corn [11] = assay: Postemergence Herbicidal Activity, Field Corn; conditions: Zea mays, post-emergence
Text: as §2

Velvetleaf [12] = assay: Preemergence Herbicidal Activity, Velvetleaf; conditions: Abutilon theophrasti, pre-emergence
Text: as §1

Barnyardgrass [13] = assay: Postemergence Herbicidal Activity, Barnyardgrass; conditions: Echinochloa crus-galli, post-emergence
Text: as §2

Green Foxtail [14] = assay: Postemergence Herbicidal Activity, Green Foxtail; conditions: Setaria viridis, post-emergence
Text: as §2

Cotton [15] = assay: Preemergence Herbicidal Activity, Cotton; conditions: Gossypium hirsutum, pre-emergence
Text: as §1

Rice [16] = assay: Postemergence Herbicidal Activity, Rice; conditions: Oryza sativa, post-emergence, 0.25 kg/ha
Text: as §2

Field Corn [17] = assay: Preemergence Herbicidal Activity, Field Corn; conditions: Zea mays, pre-emergence
Text: as §2

Wheat [18] = assay: Postemergence Herbicidal Activity, Wheat; conditions: Triticum aestivum, post-emergence
Text: as §2

Johnsongrass [19] = assay: Preemergence Herbicidal Activity, Johnsongrass; conditions: Sorghum halepense, pre-emergence
Text: as §2

Velvetleaf [20] = assay: Postemergence Herbicidal Activity, Velvetleaf; conditions: Abutilon theophrasti, post-emergence
Text: as §1

Cotton [21] = assay: Postemergence Herbicidal Activity, Cotton; conditions: Gossypium hirsutum, post-emergence
Text: as §1

Field Bindweed [22] = assay: Postemergence Herbicidal Activity, Field Bindweed; conditions: post-emergence, 8.0 kg/ha
Text: as §1

In the case of `CCS(=O)(=O)Nc1cc(-n2nnn(CCCF)c2=O)c(F)cc1Cl` [Compound 31, 1-[4-Chloro-2-fluoro-5-(N--ethylsulfonylamino)phenyl]-1,4-dihydro-4-(3-fluoropropyl)-5H--tetrazol-5-one potassium salt], the pest or weed control at 250 g/ha (Morningglory [1]; 0.25 kg/ha) is reported as 100%, the pest or weed control at 250 g/ha (Johnsongrass [2]; 0.25 kg/ha) is reported as 60% and the plant injury at 250 g/ha (Wheat [3]; 0.25 kg/ha) is reported as 20%. It also gave a pest or weed control at 250 g/ha (Field Bindweed [4]; 0.25 kg/ha) of 100%, a pest or weed control at 250 g/ha (Green Foxtail [5]; 0.25 kg/ha) of 50% and a plant injury at 250 g/ha (Soybean [6]; 0.25 kg/ha) of 80%. The “Preemergence Herbicidal Activity” value (Soybean [7]; 0.25 kg/ha, potassium salt) was 10 % Control, the pest or weed control at 250 g/ha (Barnyardgrass [8]; 0.25 kg/ha) was 95% and the “Postemergence Herbicidal Activity” value (Morningglory [9]; 0.25 kg/ha, potassium salt) was 100 % Control. For the same compound, the plant injury at 250 g/ha (Rice [10]; 0.25 kg/ha) was 40%, the plant injury at 250 g/ha (Field Corn [11]; 0.25 kg/ha) was 30% and the pest or weed control at 250 g/ha (Velvetleaf [12]; 0.25 kg/ha) was 100%. For the same compound, the pest or weed control at 250 g/ha (Barnyardgrass [13]; 0.25 kg/ha) was 80%, the pest or weed control at 250 g/ha (Green Foxtail [14]; 0.25 kg/ha) was 60% and the plant injury at 250 g/ha (Cotton [15]; 0.25 kg/ha) was 100%. It also gave a plant injury at 250 g/ha (Rice [16]) of 40%, a plant injury at 250 g/ha (Field Corn [17]; 0.25 kg/ha) of 30% and a plant injury at 250 g/ha (Wheat [18]; 0.25 kg/ha) of 40%. The pest or weed control at 250 g/ha (Johnsongrass [19]; 0.25 kg/ha) was 70%.
With `CCS(=O)(=O)N(c1cc(-n2nnn(CCCF)c2=O)c(F)cc1Cl)S(=O)(=O)CC` [Compound 21, 1-[4-chloro-2-fluoro-5-[bis(N--ethylsulfonyl)amino]phenyl]-1,4-dihydro-4-(3-fluoropropyl)-5H--tetrazol-5-one] the pest or weed control at 500 g/ha (Morningglory [1]; 0.5 kg/ha) was 95%, the plant injury at 500 g/ha (Wheat [3]; 0.5 kg/ha) was 95% and the pest or weed control at 500 g/ha (Green Foxtail [5]; 0.5 kg/ha) was 100%. The plant injury at 500 g/ha (Soybean [7]; Glycine max, pre-emergence, 0.5 kg/ha) was 20%, the pest or weed control at 500 g/ha (Barnyardgrass [8]; 0.5 kg/ha) was 100% and the plant injury at 500 g/ha (Rice [10]; 0.5 kg/ha) was 80%. For the same compound, the pest or weed control at 500 g/ha (Velvetleaf [12]; 0.5 kg/ha) was 100%, the plant injury at 500 g/ha (Cotton [15]; 0.5 kg/ha) was 95% and the plant injury at 500 g/ha (Field Corn [17]; 0.5 kg/ha) was 90%. The pest or weed control at 500 g/ha (Johnsongrass [19]; 0.5 kg/ha) was 100%.
`CS(=O)(=O)N(c1cc(-n2nnn(CCCF)c2=O)c(F)cc1Cl)S(C)(=O)=O` [Compound 9] was tested, and the pest or weed control at 1000 g/ha (Morningglory [1]; 1.0 kg/ha) was 100%, the pest or weed control at 1000 g/ha (Johnsongrass [2]; 1.0 kg/ha) was 70% and the plant injury at 1000 g/ha (Wheat [3]; 1.0 kg/ha) was 90%. It also gave a pest or weed control at 1000 g/ha (Green Foxtail [5]; 1.0 kg/ha) of 100%, a plant injury at 1000 g/ha (Soybean [6]; 1.0 kg/ha) of 30% and a plant injury at 1000 g/ha (Soybean [7]; Glycine max, pre-emergence, 1.0 kg/ha) of 50%. The pest or weed control at 1000 g/ha (Barnyardgrass [8]; 1.0 kg/ha) was 100%, the pest or weed control at 1000 g/ha (Velvetleaf [20]; 1.0 kg/ha) was 100% and the pest or weed control at 1000 g/ha (Morningglory [9]; Ipomoea, post-emergence, 1.0 kg/ha) was 100%. The plant injury at 1000 g/ha (Field Corn [11]; 1.0 kg/ha) was 30%, the plant injury at 1000 g/ha (Cotton [21]; 1.0 kg/ha) was 100% and the pest or weed control at 1000 g/ha (Velvetleaf [12]; 1.0 kg/ha) was 100%. For the same compound, the pest or weed control at 1000 g/ha (Barnyardgrass [13]; 1.0 kg/ha) was 100%, the pest or weed control at 1000 g/ha (Green Foxtail [14]; 1.0 kg/ha) was 60% and the plant injury at 1000 g/ha (Cotton [15]; 1.0 kg/ha) was 100%. It also gave a plant injury at 1000 g/ha (Field Corn [17]; 1.0 kg/ha) of 100%, a plant injury at 1000 g/ha (Wheat [18]; 1.0 kg/ha) of 80% and a pest or weed control at 1000 g/ha (Johnsongrass [19]; 1.0 kg/ha) of 80%.
With `CCS(=O)(=O)N(c1cc(-n2nnn(CCCF)c2=O)ccc1Cl)S(=O)(=O)CC` [Compound 18, 1-[4-chloro-3-[bis(N--ethylsulfonyl)-amino]phenyl]-1,4-dihydro-4-(3-fluoropropyl)-5H--tetrazol-5-one] the pest or weed control at 8000 g/ha (Morningglory [1]; 8.0 kg/ha) was 40%, the pest or weed control at 8000 g/ha (Johnsongrass [2]; 8.0 kg/ha) was 30% and the pest or weed control at 8000 g/ha (Field Bindweed [22]) was 50%. For the same compound, the plant injury at 8000 g/ha (Wheat [3]; 8.0 kg/ha) was 0%, the pest or weed control at 8000 g/ha (Field Bindweed [4]; 8.0 kg/ha) was 30% and the pest or weed control at 8000 g/ha (Green Foxtail [5]; 8.0 kg/ha) was 10%. The plant injury at 8000 g/ha (Soybean [6]; 8.0 kg/ha) was 60%, the plant injury at 8000 g/ha (Soybean [7]; Glycine max, pre-emergence, 8.0 kg/ha) was 10% and the pest or weed control at 8000 g/ha (Barnyardgrass [8]; 8.0 kg/ha) was 20%. The pest or weed control at 8000 g/ha (Velvetleaf [20]; 8.0 kg/ha) was 95%, the pest or weed control at 8000 g/ha (Morningglory [9]; Ipomoea, post-emergence, 8.0 kg/ha) was 70% and the plant injury at 8000 g/ha (Field Corn [11]; 8.0 kg/ha) was 30%. It also gave a plant injury at 8000 g/ha (Cotton [21]; 8.0 kg/ha) of 60%, a pest or weed control at 8000 g/ha (Velvetleaf [12]; 8.0 kg/ha) of 95% and a pest or weed control at 8000 g/ha (Barnyardgrass [13]; 8.0 kg/ha) of 30%. For the same compound, the pest or weed control at 8000 g/ha (Green Foxtail [14]; 8.0 kg/ha) was 30%, the plant injury at 8000 g/ha (Cotton [15]; 8.0 kg/ha) was 100% and the plant injury at 8000 g/ha (Field Corn [17]; 8.0 kg/ha) was 0%. It also gave a plant injury at 8000 g/ha (Wheat [18]; 8.0 kg/ha) of 10% and a pest or weed control at 8000 g/ha (Johnsongrass [19]; 8.0 kg/ha) of 40%.
